Assay [1] relates to C72 murine anti-DNA antibody. Nature of the assay: Competitive inhibition of C72 binding to 5200. To be noted: FIG. 2, incubation with inhibiting agent. The arrangement: species or system mouse. As to the method: The binding of C72 to 5200 was tested before and after incubation with 5200, R38, R18, Heparin, DNA and DNase. […] The percent inhibition is the percent reduction of the O.D. after incubation with the inhibiting agent.

For assay [2], the system named is MRL/lpr/lpr mice. Nature of the assay: Effect on clinical course of murine SLE (survival, renal histology). To be noted: 60 μg i.p. once a week for 16 week, from 6 weeks old, FIG. 8. The class given is in vivo, mouse. As to the method: To test whether R38 peptides can affect the course of SLE we have tested their effect on MRL/lpr/lpr mice disease. 60 μg of 5200 (R38′ alone or in peptide combinations, 30 μg of each) in 0.1 ml PBS, was injected i.p. to 6 week old female MLR/lpr/lpr mice once a week for 16 week and the mice were evaluated for survival (FIG. 8), and for renal histology. 50 μg of 5100 (R38) or 5300 (human R38) in 0.1 ml PBS, was injected i.p. to 6 week old MRL/lpr/lpr mice three times a week and the mice were evaluated for survival (FIG. 9), and for renal histology. Control mice received 0.1 ml phosphate buffer solution. Each test and control group contained 12-15 mice.
The survival of MRL/lpr/lpr mice treated with […], 5200 or 5300 was compared to that of PBS treated mice. […] In FIGS. 8 and 9 the time in days shown on the x axis relates to the age of the mice.

The test system of assay [3] is human monoclonal anti-DNA antibody DIL 6. Nature of the assay: Direct binding ELISA of DIL6 to laminin peptides. The following applies: FIGS. 3 and 4. The procedure: (§1) The C72 murine anti-DNA antibody has been derived from (NZB×NZW)F1 lupus mice by the hybridoma technique as described in Eilat D. et al J. Immunol. […] The monoclonal anti-DNA antibodies DIL6 and B3 were derived from lupus patients by hybridoma technique as described in Ehrenstein M. R. et al J. Clin. Invest. (1994) 93 1787-1799 and Ehrenstein M. R. et al Kidney Inter. (1995) 48 705-711.
(§2) Wells were coated with 10 μg/ml of the peptides, blocked with 1% BSA (bovine serum albumin) in PBS (pH 7,4), reacted with appropriately diluted serum or urine samples or monoclonal antibodies, incubated with anti-human or anti-mouse immunoglobulin enzyme conjugated to alkaline phosphatase and detected by addition of substrate (Sigma 100 Phosphatase Substrate Tablets) and color development using an Organon Teknika Microwell System spectrometer at wavelength of 405 nm.
(§3) The human monoclonal anti-DNA antibodies DIL 6 and B3 were derived from lupus patients by the hybridoma technique. […] In FIGS. 3 and 4, the peptides are referred to as denoted above or as follows; AS30 is R27, AS19 is R35 AS35 is R26, AS17 is R28 and AS6 is R18.
In general terms: In an ELISA, binding on a coated surface is turned into a signal by an enzyme label.

Assay [4] relates to B3 human anti-DNA antibody. As to the kind of experiment: Direct binding ELISA of B3 to laminin peptides. The procedure: as §1, §2, §3
(§4) The peptides of the present invention were tested for their ability to bind directly with C72 murine anti-DNA antibodies and B3 human anti-DNA antibodies according to the method described hereinabove.

The subject of assay [5] is C72 murine anti-DNA antibody. Nature of the assay: Direct binding ELISA of C72 to laminin peptides. Also noted: species or system mouse. The procedure:
as §1, §2
The interaction of the C72 murine anti-DNA antibody with laminin peptides was analyzed by ELISA as described above. The C72 conditioned medium was diluted in PBS in various dilutions.
as §4

Assay [6] relates to murine urinary immunoglobulins. Nature of the assay: Binding of murine urinary immunoglobulins, direct binding ELISA. Also noted: species or system mouse. The following applies: MRL/lpr/lpr mice, pooled urine. The procedure: as §2
Thus, pooled urine from at least 5 mice (either MRL/lpr/lpr or control mice, e.g. BALB/c) was added to wells coated with R38′ (5200), R18 or DNA as described above and bound 5200 assayed by ELISA.
Each group is comprised of pooled urine.

The target in assay [7] is C72 anti-DNA antibody. Nature of the assay: Competitive inhibition of C72 binding to R38 (5100). The arrangement: species or system mouse. The following applies: concentration of competitive inhibitor, ELISA. The source says: A competitive inhibition study compared how each of the peptides competes with R38 (5100) for binding to the C72 anti-DNA antibody. Conducted according to the methods described hereinabove, the results of the study are disclosed in Table 4 below and are further elucidated by reference to FIG. 10.

Residues, ends and D or L forms follow the SMILES beside them.

Results on two molecules are retold here after patent US20020054872A1, “Peptides for the treatment of systemic lupus erythematosus and methods of treating systemic lupus erythematosus” (priority 1997, published 2002).

As for `CC(C)C[C@H](NC(=O)[C@H](CC(=O)O)NC(=O)[C@H](CC(C)C)NC(=O)[C@H](CCCNC(=N)N)NC(=O)[C@@H](NC(=O)[C@H](CCCCN)NC(=O)[C@H](Cc1ccc(O)cc1)NC(=O)CNC(=O)[C@H](CCC(=O)O)NC(=O)[C@@H](N)CCCCN)C(C)C)C(=O)N[C@@H](CC(N)=O)C(=O)N[C@H](C(=O)N[C@H](C(=O)N[C@@H](CC(C)C)C(=O)N[C@@H](CCC(=O)O)C(=O)N[C@@H](Cc1ccccc1)C(=O)N[C@@H](CCCNC(=N)N)C(=O)N[C@H](C(=O)N[C@H](C(=O)N[C@@H](CO)C(=O)N[C@@H](CCCCN)C(=O)O)[C@@H](C)O)[C@@H](C)O)[C@@H](C)O)[C@@H](C)O` (stereo in doubt) [Peptide 5200], in assay [1], the “inhibition of the binding of C72 to 5200” value is on record as “inhibition”. The survival entry in assay [2] was “significantly higher than that of control mice”. For the same molecule, the “binding of DIL 6” value in assay [3] is listed as “found to bind”. In addition, the “binding of B3” value in assay [4] (FIGS. 3 and 4) is recorded as “found to bind”. Also, the “binding of C72 murine anti-DNA antibody to laminin peptides” value in assay [5] (FIG. 1, C72 conditioned medium in various dilutions) is on record as “binding”. In assay [6], the “Binding of murine urinary immunoglobulins to antigen” value was 0.26 (*) O.D. at 405 nm.
On to `CC[C@H](C)[C@H](NC(=O)[C@H](CC(N)=O)NC(=O)[C@@H](NC(=O)[C@H](CC(=O)O)NC(=O)[C@H](CO)NC(=O)[C@H](CCC(N)=O)NC(=O)[C@@H](NC(=O)[C@H](CCCCN)NC(=O)[C@H](Cc1ccc(O)cc1)NC(=O)CNC(=O)[C@H](CCC(=O)O)NC(=O)[C@@H](N)CCCCN)C(C)C)C(C)C)C(=O)N[C@H](C(=O)N[C@@H](CC(C)C)C(=O)N[C@@H](CCC(=O)O)C(=O)N[C@@H](Cc1ccccc1)C(=O)N[C@@H](CCCNC(=N)N)C(=O)N[C@H](C(=O)N[C@@H](CO)C(=O)N[C@@H](CO)C(=O)N[C@@H](CCC(N)=O)C(=O)O)[C@@H](C)O)[C@@H](C)O` [Peptide 5300] (H-KEGYKVQSDVNITLEFRTSSQ-OH; N-terminus and C-terminus assumed), for which, in assay [7], the “50% Inhibition of C72 binding to mouse R38 (5100)” value came to 85 µg/mL. The “B3 Binding” value in assay [4] (direct binding ELISA test after two (2) hours) is recorded as 0.03 O.D. In addition, the “C72 Binding” value in assay [5] (direct binding ELISA test after one (1) hour) stood at 0.03 O.D.
